Laboratory results: patent publication US20110071108A1, “Beta-Cyclodextrin Derivatives as Antibacterial Agents” (Pinnacle Pharmaceuticals, Inc., priority 2005, published 2011)

Columns and labels:
Assay in all cases: Bacterial panel testing, MIC by broth microdilution
Assay type in all cases: cell-based
Settings in all cases: 20-24 hours growth
[1] = tested on: Pseudomonas aeruginosa
Summary of the method: (§1)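 Strains grown 2-4 h at 37 °C in Mueller-Hinton or Brain Heart infusion broth, standardized to McFarland density and diluted. Compound (10 μg/ml in DMSO) serially two-fold diluted across plate in inoculated media; rifampicin control. Growth 20-24 h, clear wells scored for MIC.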

[2] = tested on: Eschericia coli
Summary of the method: as §1

[3] = tested on: Bacillus atrophaeus
Summary of the method: as §1

[4] = tested on: Salmonella choleraesuis
Summary of the method: as §1

[5] = tested on: Enterococcus faecium
Summary of the method: as §1

[6] = tested on: Staphylococcus aureus
Summary of the method: as §1

Row | SMILES | MIC PA [1] [µg/mL] | MIC EC [2] [µg/mL] | MIC BA [3] [µg/mL] | MIC SC [4] [µg/mL] | MIC EF [5] [µg/mL] | MIC SA [6] [µg/mL]
1 | CCCCCCCCCCCCNCC1OC2OC3C(CNCCCCCCCCCCCC)OC(OC4C(CNCCCCCCCCCCCC)OC(OC5C(CNCCCCCCCCCCCC)OC(OC6C(CNCCCCCCCCCCCC)OC(OC7C(CNCCCCCCCCCCCC)OC(OC8C(CNCCCCCCCCCCCC)OC(OC1C(O)C2O)C(O)C8O)C(O)C7O)C(O)C6O)C(O)C5O)C(O)C4O)C(O)C3O (stereo not drawn) | >200 | >200 | >200 | >200 | >200 | 
2 | OC1C2OC(Cn3cc(Cc4ccccc4)nn3)C(OC3OC(Cn4cc(Cc5ccccc5)nn4)C(OC4OC(Cn5cc(Cc6ccccc6)nn5)C(OC5OC(Cn6cc(Cc7ccccc7)nn6)C(OC6OC(Cn7cc(Cc8ccccc8)nn7)C(OC7OC(Cn8cc(Cc9ccccc9)nn8)C(OC8OC(Cn9cc(Cc%10ccccc%10)nn9)C(O2)C(O)C8O)C(O)C7O)C(O)C6O)C(O)C5O)C(O)C4O)C(O)C3O)C1O (stereo not drawn) | >200 | >200 | >200 | >200 | >200 | >200
3 | CCCCCCCCCCCCCCCCNCC1OC2OC3C(CNCCCCCCCCCCCCCCCC)OC(OC4C(CNCCCCCCCCCCCCCCCC)OC(OC5C(CNCCCCCCCCCCCCCCCC)OC(OC6C(CNCCCCCCCCCCCCCCCC)OC(OC7C(CNCCCCCCCCCCCCCCCC)OC(OC8C(CNCCCCCCCCCCCCCCCC)OC(OC1C(O)C2O)C(O)C8O)C(O)C7O)C(O)C6O)C(O)C5O)C(O)C4O)C(O)C3O (stereo not drawn) | >200 | >200 | >200 | >200 | >200 | 
4 | Cl.Cl.Cl.Cl.Cl.Cl.Cl.NC(CCC(=O)O)C(=O)NCC1OC2OC3C(CNC(=O)C(N)CCC(=O)O)OC(OC4C(CNC(=O)C(N)CCC(=O)O)OC(OC5C(CNC(=O)C(N)CCC(=O)O)OC(OC6C(CNC(=O)C(N)CCC(=O)O)OC(OC7C(CNC(=O)C(N)CCC(=O)O)OC(OC8C(CNC(=O)C(N)CCC(=O)O)OC(OC1C(O)C2O)C(O)C8O)C(O)C7O)C(O)C6O)C(O)C5O)C(O)C4O)C(O)C3O (stereo not drawn) | >200 | >200 | >200 | >200 | >200 | >200
5 | OCC1OC(OCc2cn(CC3OC4OC5C(Cn6cc(COC7OC(CO)C(O)C(O)C7O)nn6)OC(OC6C(Cn7cc(COC8OC(CO)C(O)C(O)C8O)nn7)OC(OC7C(Cn8cc(COC9OC(CO)C(O)C(O)C9O)nn8)OC(OC8C(Cn9cc(COC%10OC(CO)C(O)C(O)C%10O)nn9)OC(OC9C(Cn%10cc(COC%11OC(CO)C(O)C(O)C%11O)nn%10)OC(OC%10C(Cn%11cc(COC%12OC(CO)C(O)C(O)C%12O)nn%11)OC(OC3C(O)C4O)C(O)C%10O)C(O)C9O)C(O)C8O)C(O)C7O)C(O)C6O)C(O)C5O)nn2)C(O)C(O)C1O (stereo not drawn) | >200 | >200 | >200 | >200 | >200 | >200
6 | CN(C)CCNCC(=O)NCC1OC2OC3C(CNC(=O)CNCCN(C)C)OC(OC4C(CNC(=O)CNCCN(C)C)OC(OC5C(CNC(=O)CNCCN(C)C)OC(OC6C(CNC(=O)CNCCN(C)C)OC(OC7C(CNC(=O)CNCCN(C)C)OC(OC8C(CNC(=O)CNCCN(C)C)OC(OC1C(O)C2O)C(O)C8O)C(O)C7O)C(O)C6O)C(O)C5O)C(O)C4O)C(O)C3O.Cl.Cl.Cl.Cl.Cl.Cl.Cl (stereo not drawn) |  | >200 | >200 | >200 | >200 | >200
7 | CC(C)NCC1OC2OC3C(CNC(C)C)OC(OC4C(CNC(C)C)OC(OC5C(CNC(C)C)OC(OC6C(CNC(C)C)OC(OC7C(CNC(C)C)OC(OC8C(CNC(C)C)OC(OC1C(O)C2O)C(O)C8O)C(O)C7O)C(O)C6O)C(O)C5O)C(O)C4O)C(O)C3O (stereo not drawn) | >200 | >200 |  | >200 | >200 | >200
8 | OC1C2OC(CNc3nc4ccccc4[nH]3)C(OC3OC(CNc4nc5ccccc5[nH]4)C(OC4OC(CNc5nc6ccccc6[nH]5)C(OC5OC(CNc6nc7ccccc7[nH]6)C(OC6OC(CNc7nc8ccccc8[nH]7)C(OC7OC(CNc8nc9ccccc9[nH]8)C(OC8OC(CNc9nc%10ccccc%10[nH]9)C(O2)C(O)C8O)C(O)C7O)C(O)C6O)C(O)C5O)C(O)C4O)C(O)C3O)C1O (stereo not drawn) | >200 | >200 |  | >200 | >200 | >200
9 | CC(CCN)CCSCC1OC2OC3C(CSCCC(C)CCN)OC(OC4C(CSCCC(C)CCN)OC(OC5C(CSCCC(C)CCN)OC(OC6C(CSCCC(C)CCN)OC(OC7C(CSCCC(C)CCN)OC(OC8C(CSCCC(C)CCN)OC(OC1C(O)C2O)C(O)C8O)C(O)C7O)C(O)C6O)C(O)C5O)C(O)C4O)C(O)C3O.Cl.Cl.Cl.Cl.Cl.Cl.Cl (stereo not drawn) | >100 | >100 |  | >100 | >100 | >100
10 | Cl.Cl.Cl.Cl.Cl.Cl.Cl.N[C@@H](CC(=O)OCc1ccccc1)C(=O)NC[C@H]1O[C@@H]2O[C@H]3[C@H](O)[C@@H](O)[C@@H](O[C@H]4[C@H](O)[C@@H](O)[C@@H](O[C@H]5[C@H](O)[C@@H](O)[C@@H](O[C@H]6[C@H](O)[C@@H](O)[C@@H](O[C@H]7[C@H](O)[C@@H](O)[C@@H](O[C@H]8[C@H](O)[C@@H](O)[C@@H](O[C@H]1[C@H](O)[C@H]2O)O[C@@H]8CNC(=O)[C@@H](N)CC(=O)OCc1ccccc1)O[C@@H]7CNC(=O)[C@@H](N)CC(=O)OCc1ccccc1)O[C@@H]6CNC(=O)[C@@H](N)CC(=O)OCc1ccccc1)O[C@@H]5CNC(=O)[C@@H](N)CC(=O)OCc1ccccc1)O[C@@H]4CNC(=O)[C@@H](N)CC(=O)OCc1ccccc1)O[C@@H]3CNC(=O)[C@@H](N)CC(=O)OCc1ccccc1 | >200 | >200 |  | >200 | >200 | >200
11 | Cl.Cl.Cl.Cl.Cl.Cl.Cl.NC(CS)C(=O)NCC1OC2OC3C(CNC(=O)C(N)CS)OC(OC4C(CNC(=O)C(N)CS)OC(OC5C(CNC(=O)C(N)CS)OC(OC6C(CNC(=O)C(N)CS)OC(OC7C(CNC(=O)C(N)CS)OC(OC8C(CNC(=O)C(N)CS)OC(OC1C(O)C2O)C(O)C8O)C(O)C7O)C(O)C6O)C(O)C5O)C(O)C4O)C(O)C3O (stereo not drawn) | >200 | >200 |  | >200 | >200 | >200
12 | Cl.Cl.Cl.Cl.Cl.Cl.Cl.N[C@@H](Cc1ccc(O)cc1)C(=O)NC[C@H]1O[C@@H]2O[C@H]3[C@H](O)[C@@H](O)[C@@H](O[C@H]4[C@H](O)[C@@H](O)[C@@H](O[C@H]5[C@H](O)[C@@H](O)[C@@H](O[C@H]6[C@H](O)[C@@H](O)[C@@H](O[C@H]7[C@H](O)[C@@H](O)[C@@H](O[C@H]8[C@H](O)[C@@H](O)[C@@H](O[C@H]1[C@H](O)[C@H]2O)O[C@@H]8CNC(=O)[C@@H](N)Cc1ccc(O)cc1)O[C@@H]7CNC(=O)[C@@H](N)Cc1ccc(O)cc1)O[C@@H]6CNC(=O)[C@@H](N)Cc1ccc(O)cc1)O[C@@H]5CNC(=O)[C@@H](N)Cc1ccc(O)cc1)O[C@@H]4CNC(=O)[C@@H](N)Cc1ccc(O)cc1)O[C@@H]3CNC(=O)[C@@H](N)Cc1ccc(O)cc1 | >200 | >200 |  | >200 | >200 | >200
13 | Cl.Cl.Cl.Cl.Cl.Cl.Cl.O=C(CNCc1ccccc1)NCC1OC2OC3C(CNC(=O)CNCc4ccccc4)OC(OC4C(CNC(=O)CNCc5ccccc5)OC(OC5C(CNC(=O)CNCc6ccccc6)OC(OC6C(CNC(=O)CNCc7ccccc7)OC(OC7C(CNC(=O)CNCc8ccccc8)OC(OC8C(CNC(=O)CNCc9ccccc9)OC(OC1C(O)C2O)C(O)C8O)C(O)C7O)C(O)C6O)C(O)C5O)C(O)C4O)C(O)C3O (stereo not drawn) | >200 | >200 |  | >200 | >200 | >200
14 | Cl.Cl.Cl.Cl.Cl.Cl.Cl.N=C(N)NCCCSC[C@H]1O[C@@H]2O[C@H]3[C@H](O)[C@@H](O)[C@@H](O[C@H]4[C@H](O)[C@@H](O)[C@@H](O[C@H]5[C@H](O)[C@@H](O)[C@@H](O[C@H]6[C@H](O)[C@@H](O)[C@@H](O[C@H]7[C@H](O)[C@@H](O)[C@@H](O[C@H]8[C@H](O)[C@@H](O)[C@@H](O[C@H]1[C@H](O)[C@H]2O)O[C@@H]8CSCCCNC(=N)N)O[C@@H]7CSCCCNC(=N)N)O[C@@H]6CSCCCNC(=N)N)O[C@@H]5CSCCCNC(=N)N)O[C@@H]4CSCCCNC(=N)N)O[C@@H]3CSCCCNC(=N)N | >200 | >200 |  | >200 | >200 | >200
15 | Cl.Cl.Cl.Cl.Cl.Cl.Cl.NCCCCCSC[C@H]1O[C@@H]2O[C@H]3[C@H](O)[C@@H](O)[C@@H](O[C@H]4[C@H](O)[C@@H](O)[C@@H](O[C@H]5[C@H](O)[C@@H](O)[C@@H](O[C@H]6[C@H](O)[C@@H](O)[C@@H](O[C@H]7[C@H](O)[C@@H](O)[C@@H](O[C@H]8[C@H](O)[C@@H](O)[C@@H](O[C@H]1[C@H](O)[C@H]2O)O[C@@H]8CSCCCCCN)O[C@@H]7CSCCCCCN)O[C@@H]6CSCCCCCN)O[C@@H]5CSCCCCCN)O[C@@H]4CSCCCCCN)O[C@@H]3CSCCCCCN | >200 | >200 |  | >200 | >200 | >200
